In patent publication US20090149417A1, “Methods and compositions for the treatment of cancer using benzopyrone-type PARP inhibitors” (priority 2007, published 2009):
Values joined by “and” are separate entries in the source; they are usually repeats but may differ in a detail not shown here. Identical values can stand only once. Like-named read-outs stand apart in the source and are kept apart here.

Assays:
[1] = system: Colo375FG metastatic pancreatic adenocarcinoma cells; test: TUNEL apoptosis assay (flow cytometry); format: cell-based, human; settings: for Dead cells TUNEL (%): Compound IIIc 0 mM
Procedure: Cells are labeled for apoptosis with the “In Situ Cell Death Detection Kit, Fluorescein” (Roche Diagnostics Corporation, Roche Applied Science, Indianapolis, Ind.). Briefly, fixed cells are centrifuged and washed once in phosphate-buffered saline (PBS) containing 1% bovine serum albumin (BSA), then resuspended in 2 ml permeabilization buffer (0.1% Triton X-100 and 0.1% sodium citrate in PBS) for 25 min at room temperature and washed twice in 0.2 ml PBS/1% BSA. The cells are resuspended in 50 μl TUNEL reaction mixture (TdT enzyme and labeling solution) and incubated for 60 min at 37° C. in a humidified dark atmosphere in an incubator. The labeled cells are washed once in PBS/1% BSA, then resuspended in 0.5 ml ice-cold PBS containing 1 μg/ml 4′,6-diamidino-2-phenylindole (DAPI) for at least 30 min. All cell samples are analyzed with a BD LSR II (BD Biosciences, San Jose, Calif.).
The cells are labeled for apoptosis with the “In Situ Cell Death Detection Kit, Fluorescein” (Roche Diagnostics Corporation, Roche Applied Science, Indianapolis, Ind.). Briefly, fixed cells are centrifuged and washed once in phosphate-buffered saline (PBS) containing 1% bovine serum albumin (BSA), then resuspended in 2 ml permeabilization buffer (0.1% Triton X-100 and 0.1% sodium citrate in PBS) for 25 minutes at room temperature and washed twice in 0.2 ml PBS/1% BSA. The cells are resuspended in 50 μl TUNEL reaction mixture (TdT enzyme and labeling solution) and incubated for 60 min at 37° C. in a humidified dark atmosphere in an incubator. The labeled cells are washed once in PBS/1% BSA, then resuspended in 0.5 ml ice-cold PBS containing 1 μg/ml 4,6-diamidino-2-phenylindole (DAPI) for at least 30 min. All cell samples are analyzed with a BD LSR II (BD Biosciences, San Jose, Calif.).

[2] = system: MDA-MB-231; test: BrdU chemiluminescent cell proliferation assay; format: cell-based, human; settings: for IC50: Homo sapiens, MDA-MB-231, 72 h, 72 hour treatment
Procedure: (§1) Test Agents—Cells are treated 24 hours after plating (Day 1) with vehicle or test agents at concentrations of 0.1 μM, 0.3 μM, 1 μM, 3 μM, 10 μM, 30 μM and 100 μM.
(§2) Tumor Cell Lines—Tumor cell lines (Table 1) are obtained from the American Type Cell Collection (ATCC, Rockville, Md.) or NCI-DCTD Tumor Repository (Bethesda, Md.) and maintained in proper growth media supplemented with 10% fetal bovine serum (FBS, NovaTech), and are maintained in specified growth media. Cells are propagated at 37° C. in a humidified atmosphere containing 5% carbon dioxide.
(§3) Cell proliferation assay—Cell proliferation is determined using BrdU chemiluminescent assay, which measures incorporation of 5-bromo-2′-deoxyuridine (BrdU) into the genomic DNA of proliferating cells. Briefly, cells are added with BrdU for 4 hours, during which time it incorporates into the DNA of dividing cells in place of thymidine. Following labeling, cells are fixed and DNA denatured in one step by adding a FixDenat® denaturizing solution. After removing FixDenat, an anti-BrdU-peroxidase conjugated antibody is added, which binds to BrdU incorporated into newly-synthesized cellular DNA. Following antibody incubation, cells are washed 3 times with PBS and subjected to luminescent analysis. The reaction product is quantified by measuring light emission using a scanning multi-well luminometer (luminescence ELISA reader.)
(§4) Experimental Design—Tumor cells (Table 1) are grown to 70% confluency, trypsinized, counted and seeded in 96 well flat-bottom plates at final concentrations of 7.5×103-3×10^4 cells/well (Day 0); treatment with IIIg begins on Day 1 and continues for 68 hours (Table 2). Doses for both compounds range between […] and 100 μM. At the 68 hour time point, viable cell number is measured by BrdU assay as described above. Experiments are repeated at least twice at the same doses to determine inhibition of cell proliferation. Results from these studies are used to calculate an IC50 value (drug concentration that results in half-maximal response) for IIIg in each line.
(§5) For single studies, data from each experiment is collected and expressed as % Inhibition of Cell Proliferation (% ICP) using the following calculation.
(§6) % ICP=100%×[(1−(RLUtest/RLUvehicle)]
(§7) Where RLUtest is the relative light unit of the tested sample, and RLUvehicle is the relative light unit of the vehicle in which the drug is dissolved. An IC50 value is calculated from % ICP (PRISM® GraphPad software) using the formula:
(§8) y=min+(max−min)/(1+10^(Log(IC50)−x)×Hillslope)
(§9) Where (x) is the logarithm of agonist concentration, (y) is the response, and (min) and (max) are the variable lower and upper plateaus, respectively. The variable Hillslope characterizes the slope of the curve at its midpoint. The IC50 is the drug concentration for y halfway between min and max.

[3] = system: MX-1; test: BrdU chemiluminescent cell proliferation assay; format: cell-based, human; settings: for IC50: Homo sapiens, MX1, 72 hour treatment
Procedure: as §1, §2, §3, §4, §5, §6, §7, §8, §9

[4] = system: NIH: OVCAR-3; test: BrdU chemiluminescent cell proliferation assay; format: cell-based, human; settings: for IC50: Homo sapiens, OVCAR-3, 72 h, 72 hour treatment
Procedure: as §1, §2, §3, §4, §5, §6, §7, §8, §9

[5] = system: L3.6 μl PC cells; test: Luciferase-expressing pancreatic cancer orthotopic nude mouse model; format: in vivo; settings: 100 mg/kg/day 2/week×4 weeks
Procedure: The therapeutic efficacy of IIIg on tumor growth and survival is evaluated in different luciferase-expressing pancreatic cancer orthotopic nude mouse models using an IVIS100 Imaging System, allowing a quantitative real time monitoring of tumor growth.
Mice are monitored daily for signs of toxicity including weight loss, diarrhea, inactivity, and general appearance.

[6] = system: COLO357FG and MiaPaCa-2; test: Combination with oxaliplatin, BrdU proliferation, Chou and Talalay's method; format: cell-based, human; settings: combination of IIIg with oxaliplatin
Procedure: This example provides the assessment of IIIg in combination with an anti-tumor agent, oxaliplatin, on the proliferation of two human pancreatic tumor cell lines, COLO357FG and MiaPaCa-2, in vitro. Cell proliferation is measured by BrdU incorporation as described in detail hereinabove. The experiments are performed according to Chou and Talalay's method (Chou T C, Talalay P. Quantitative analysis of dose-effect relationships: the combined effects of multiple drugs or enzyme inhibitors. Adv Enzyme Regul 1984, 22: 27-55).

[7] = mean of Exp1 and Exp2, read-out: Mean IC50

## O=C1[O][Pt]2([NH][C@@H]3CCCC[C@H]3[NH]2)[O]C1=O [OxaliPt, oxaliplatin, reference compound]
[1]; OxaliPt 10 mM
  Dead cells TUNEL (%): 21.0%
[1]; OxaliPt 20 mM
  Dead cells TUNEL (%): 48.3%
[1]; IIIg 0 μM, OxaliPt 10 μM
  TUNEL (%): 21%
[1]; IIIg 0 μM, OxaliPt 20 μM
  TUNEL (%): 48.3%

## O=c1ccc2c(I)c([N+](=O)[O-])ccc2o1 [IIIg, 5-iodo-6-nitro-benzopyrone]
[2]; Exp1, read-out: IC50
  IC50: 24 µM
[2]; Exp2, read-out: IC50
  IC50: 24.3 µM
[2]; [7]
  IC50: 24.2 µM
[2]; Max Concentration 100 μM
  Mean Maximum % Response: 99%
[3]; Exp2, read-out: IC50
  IC50: 27 µM
[3]; [7]
  IC50: 27 µM
[3]; Max Concentration 100 μM
  Mean Maximum % Response: 99%
[4]; Exp1, read-out: IC50
  IC50: 30.4 µM
[4]; Exp2, read-out: IC50
  IC50: 29.6 µM
[4]; [7]
  IC50: 30 µM
[4]; Max Concentration 100 μM
  Mean Maximum % Response: 98%
[1]; IIIg 2.5 μM, OxaliPt 0 μM
  TUNEL (%): 3.3% and 2.5%
[1]; combination: IIIg 2.5 μM + OxaliPt 10 μM
  TUNEL (%): 19%
[1]; combination: IIIg 2.5 μM + OxaliPt 20 μM
  TUNEL (%): 42%
[1]; combination: IIIg 12.5 μM + OxaliPt 10 μM
  TUNEL (%): 57.3%
[1]; combination: IIIg 12.5 μM + OxaliPt 20 μM
  TUNEL (%): 85.7%
[1]; combination: IIIg 25 μM + OxaliPt 10 μM
  TUNEL (%): 89.5%
[1]; combination: IIIg 25 μM + OxaliPt 20 μM
  TUNEL (%): 94.2%
[5]
  Signs of toxicity: without signs of toxicity
  Survival: prolongs survival
  Tumor burden: significantly reduces the tumor burden
[6]
  Synergy with oxaliplatin on proliferation: synergizes with oxaliplatin
